# Measured values: publication PMC8490401, “Chemical proteomic profiling reveals protein interactors of the alarmones diadenosine triphosphate and tetraphosphate” (Nature Communications, 2021)
# Legend:
# [1] = biological target: T1, decapping scavenger protein (DcpS) (Homo sapiens, UniProt Q96C86); assay: HPLC assay: Ap3A hydrolysed by purified DcpS and slows m7Gp3G cleavage; format: biochemical
# T1 construct: His-tagged DcpS
# T1 sequence (Q96C86 2-337): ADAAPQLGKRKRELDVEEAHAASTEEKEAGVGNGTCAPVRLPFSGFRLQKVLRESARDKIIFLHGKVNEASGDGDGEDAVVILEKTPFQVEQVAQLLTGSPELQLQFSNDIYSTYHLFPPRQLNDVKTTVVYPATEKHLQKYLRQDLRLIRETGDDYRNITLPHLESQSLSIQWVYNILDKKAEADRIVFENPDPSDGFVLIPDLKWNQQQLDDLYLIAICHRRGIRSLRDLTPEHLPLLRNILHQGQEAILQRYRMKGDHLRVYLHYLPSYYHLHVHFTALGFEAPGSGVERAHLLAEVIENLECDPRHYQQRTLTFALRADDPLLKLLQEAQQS
# [2] = biological target: T1, decapping scavenger protein (DcpS); assay: HPLC assay: Ap4A hydrolysed by purified DcpS and slows m7Gp3G cleavage; format: biochemical
# PGK1 = biological target: T2, PGK1 (Homo sapiens, UniProt P00558); assay: fluorescence polarization, direct titration of purified protein; format: binding
# T2 sequence (P00558 2-417): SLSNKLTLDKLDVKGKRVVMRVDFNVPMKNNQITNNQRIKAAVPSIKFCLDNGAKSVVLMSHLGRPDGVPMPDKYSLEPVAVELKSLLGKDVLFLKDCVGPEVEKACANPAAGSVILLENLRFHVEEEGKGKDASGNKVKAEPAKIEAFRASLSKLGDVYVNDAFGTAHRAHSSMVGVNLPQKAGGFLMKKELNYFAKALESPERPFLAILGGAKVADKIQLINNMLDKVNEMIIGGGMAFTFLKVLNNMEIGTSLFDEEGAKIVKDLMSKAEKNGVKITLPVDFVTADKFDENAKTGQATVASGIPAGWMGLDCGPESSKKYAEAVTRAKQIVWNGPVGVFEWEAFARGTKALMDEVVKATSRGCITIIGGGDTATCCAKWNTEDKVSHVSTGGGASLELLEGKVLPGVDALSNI
# LDHA = LDHA (Homo sapiens, UniProt P00338); assay: as above; format: binding
# [3] = biological target: T1, decapping scavenger protein (DcpS); assay: HPLC cleavage assay with purified DcpS; format: biochemical
smiles,measurement,setting,value
"Nc1ncnc2c1ncn2[C@@H]1O[C@H](COP(=O)(O)OP(=O)(O)OP(=O)(O)OC[C@H]2O[C@@H](n3cnc4c(N)ncnc43)[C@H](O)[C@@H]2O)[C@@H](O)[C@H]1O [Ap3A, diadenosine triphosphate]",HPLC assay: Ap3A hydrolysed by purified DcpS and slows m7Gp3G cleavage,[1],demonstrating that both Ap3A and Ap4A can be cleaved by DcpS
"Nc1ncnc2c1ncn2[C@@H]1O[C@H](COP(=O)(O)OP(=O)(O)OP(=O)(O)OP(=O)(O)OC[C@H]2O[C@@H](n3cnc4c(N)ncnc43)[C@H](O)[C@@H]2O)[C@@H](O)[C@H]1O [Ap4A, diadenosine tetraphosphate]",HPLC assay: Ap4A hydrolysed by purified DcpS and slows m7Gp3G cleavage,[2],demonstrating that both Ap3A and Ap4A can be cleaved by DcpS
Nc1ncnc2c1ncn2[C@@H]1O[C@H](COP(=O)(O)OP(=O)(O)OP(=O)(O)OC[C@H]2O[C@@H](n3cnc4c(N)nc(C#CCCCNC(=O)c5ccc6c(c5)C(=O)OC65c6ccc(O)cc6Oc6cc(O)ccc65)nc43)[C@H](O)[C@@H]2O)[C@@H](O)[C@H]1O [F-Ap3A],Kd,PGK1,37.4 ± 1.62 µM
same,Kd,LDHA,35.3 ± 0.69 µM
C[n+]1cn([C@@H]2O[C@H](COP(=O)(O)OP(=O)([O-])OP(=O)(O)OC[C@H]3O[C@@H](n4cnc5c(=O)[nH]c(N)nc54)[C@H](O)[C@@H]3O)[C@@H](O)[C@H]2O)c2nc(N)[nH]c(=O)c21 [m^7Gp3G],HPLC cleavage assay with purified DcpS,[3],HPLC profiles for the hydrolysis of m^7Gp3G (peak c) catalyzed by DcpS
